Literature values, collected in patent US20020150627A1, “Composition containing creatine and phosphorus” (priority 2001, published 2002).
Read-outs that look alike come from different tables or passages of the source.

Columns and labels:
[1] = system: subjects; settings: for Increase power output compared to placebo according to Wallace et al: four times daily for 5 days
[2] = system: skeletal muscle; settings: 4×5 gram creatine per day for five to six days
[3] = 1000 mg four times daily for 5 days

SMILES	VO2 max elevated [1, 3] [%]	Ventilatory anaerobic threshold elevated [1, 3] [%]	Increase power output compared to placebo according to Wallace et al [1] [%]	Increase power output compared to placebo according to Wallace et al ([1]; listed as phosphate) [%]	Increase power output compared to placebo according to Wallace et al ([1]; listed as Creatine, monohydrate) [%]	Increase power output compared to placebo according to Wallace et al ([1]; listed as creatine, monohydrate) [%]	Increase of skeletal muscle creatine content (average) [2] [%]	Phosphocreatine share of the increase in skeletal muscle creatine content [2] [%]
O=P([O-])([O-])[O-].[Na+].[Na+].[Na+] [Phosphate, tribasic sodium phosphate]	8	10	3	3	–	–	–	–
CN(CC(=O)O)C(=N)N.O [creatine monohydrate]	–	–	–	–	3	3	20	20
